13 compounds from patent US8716303B2, “N-(hetero)aryl-pyrrolidine derivatives of pyrazol-4-yl-pyrrolo[2,3-d]pyrimidines and pyrrol-3-yl-pyrrolo[2,3-d]pyrimidines as janus kinase inhibitors” (Incyte Corporation, priority 2009, dated 2014) can be followed below.

A value given as a limit tells only on which side of the number the result lay.

The target in experiment [1] is T1, human JAK1 (a.a. 837-1142) (Homo sapiens, UniProt P23458).
T1 construct: human JAK1 (a.a. 837-1142); His tag (N); made in house; host or cells: insect cells (baculovirus)
T1 sequence (P23458 849-1154): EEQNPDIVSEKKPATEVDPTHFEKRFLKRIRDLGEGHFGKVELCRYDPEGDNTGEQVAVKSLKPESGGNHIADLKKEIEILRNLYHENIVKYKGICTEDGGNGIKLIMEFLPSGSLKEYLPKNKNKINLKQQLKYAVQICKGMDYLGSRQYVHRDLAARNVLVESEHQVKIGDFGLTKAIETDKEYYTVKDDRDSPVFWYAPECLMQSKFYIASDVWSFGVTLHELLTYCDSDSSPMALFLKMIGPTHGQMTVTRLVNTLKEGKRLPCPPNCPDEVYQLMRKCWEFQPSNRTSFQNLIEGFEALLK
Description: In vitro JAK kinase assay (HTRF, phosphorylation of a biotinylated peptide), JAK1. The format is biochemical. The procedure: (§1) Compounds herein were tested for inhibitory activity of JAK targets according to the following in vitro assay described in Park et al., Analytical Biochemistry 1999, 269, 94-104. The catalytic domains of human JAK1 (a.a. 837-1142), Jak2 (a.a. 828-1132) and Jak3 (a.a. 781-1124) with an N-terminal His tag were expressed using baculovirus in insect cells and purified. The catalytic activity of JAK1, JAK2 or JAK3 was assayed by measuring the phosphorylation of a biotinylated peptide. The phosphorylated peptide was detected by homogenous time resolved fluorescence (HTRF). IC50s of compounds were measured for each kinase in the 40 microL reactions that contain the enzyme, ATP and 500 nM peptide in 50 mM Tris (pH 7.8) buffer with 100 mM NaCl, 5 mM DTT, and 0.1 mg/mL (0.01%) BSA. The ATP concentration in the reactions was 90 μM for Jak1, 30 μM for Jak2 and 3 μM for Jak3 for Km conditions. For the 1 mM IC50 measurements, ATP concentration in the reactions was 1 mM. Reactions were carried out at RT for 1 h and then stopped with 20 μL 45 mM EDTA, 300 nM SA-APC, 6 nM Eu-Py20 in assay buffer (Perkin Elmer, Boston, Mass.). Binding to the Europium labeled antibody took place for 40 min and HTRF signal was measured on a Fusion plate reader (Perkin Elmer, Boston, Mass.).
(§2) Compounds herein were tested for inhibitory activity of JAK1 and JAK2 targets according to the assay of Example A (experiments run at Km or 1 mM as indicated). The symbol “+” indicates an IC50<50 nM; the symbol “++” indicates an IC50≧50 and ≦100 nM; and the symbol “+++” indicates an IC50>100 and ≦500 nM.

In a further experiment the target is T2, Jak2 (a.a. 828-1132) (Homo sapiens, UniProt O60674).
T2 construct: Jak2 (a.a. 828-1132); His tag (N); made in house; host or cells: insect cells (baculovirus)
T2 sequence (O60674 828-1132): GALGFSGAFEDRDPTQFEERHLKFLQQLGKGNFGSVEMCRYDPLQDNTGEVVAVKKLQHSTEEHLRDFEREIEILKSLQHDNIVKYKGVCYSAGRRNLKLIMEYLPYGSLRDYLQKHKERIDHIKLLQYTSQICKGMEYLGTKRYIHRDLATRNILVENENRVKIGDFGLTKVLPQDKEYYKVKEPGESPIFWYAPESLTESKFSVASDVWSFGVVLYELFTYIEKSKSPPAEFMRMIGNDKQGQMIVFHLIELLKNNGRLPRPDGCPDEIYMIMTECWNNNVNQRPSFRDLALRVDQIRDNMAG
Description: In vitro JAK kinase assay (HTRF, phosphorylation of a biotinylated peptide), JAK2, reported as JAK2/JAK1 ratio. Type of experiment: biochemical. The protocol: as §1, §2
In general terms: Time-resolved FRET reads energy transfer from a long-lived donor to a nearby acceptor.

Setting [2] is: Assay Conditions Km (ATP 90 μM for Jak1).
Setting [3] is: Assay Conditions Km (ATP 90 μM for Jak1, 30 μM for Jak2).

In general, IC50 refers to the concentration that gives 50% inhibition. Compound `N#CCC(n1cc(-c2ncnc3[nH]ccc23)cn1)C1(F)CCN(c2nc3cccnc3o2)C1` (single isomer, unassigned) [31, Step 4b, enantiomer 1] registered an IC50 in experiment [1] (Assay Conditions 1 mM ATP) of 100 to 500 nM. At Jak2 (a.a. 828-1132) (Assay Conditions 1 mM ATP), the “JAK2/JAK1 IC50 ratio” value is greater than 2.5.
Consider `N#CCC(n1cc(-c2ncnc3[nH]ccc23)cn1)C1(F)CCN(c2nc3cccnc3o2)C1` (single isomer, unassigned) [31, Step 4b, enantiomer 2], for which, in experiment [1] (Assay Conditions 1 mM ATP), the IC50 was in the range of 100 to 500 nM. In addition, the “JAK2/JAK1 IC50 ratio” value on Jak2 (a.a. 828-1132) (Assay Conditions 1 mM ATP) stood at 0.8.
`N#CCC(C1CCN(c2nc3cccnc3o2)C1)n1ccc(-c2ncnc3[nH]ccc23)c1` (single isomer, unassigned) [32, Step 2a, enantiomer 1] showed an IC50 in experiment [1] (setting [2]) of less than 50 nM. Further, at Jak2 (a.a. 828-1132) (setting [3]), the “JAK2/JAK1 IC50 ratio” value is listed as 3.7.
The matching figures for `N#CCC(C1CCN(c2nc3cccnc3o2)C1)n1ccc(-c2ncnc3[nH]ccc23)c1` (single isomer, unassigned) [32, Step 2a, enantiomer 2]: less than 50 nM and 5.7.
For `N#CCC(C1CCN(c2nc3cccnc3o2)C1)n1ccc(-c2ncnc3[nH]ccc23)c1` (single isomer, unassigned) [32, Step 2b (racemate)], in that order: 50 to 100 nM and 0.2.
`N#CCC(C1CCN(c2ccc3c(n2)S(=O)(=O)CC3)C1)n1ccc(-c2ncnc3[nH]ccc23)c1` (single isomer, unassigned) [34, enantiomer 1]: the IC50 in experiment [1] (Assay Conditions 1 mM ATP) was less than 50 nM. Also, the “JAK2/JAK1 IC50 ratio” value on Jak2 (a.a. 828-1132) (Assay Conditions 1 mM ATP) was 5.6.
For the compound `N#CCC(C1CCN(c2ccc3c(n2)S(=O)(=O)CC3)C1)n1ccc(-c2ncnc3[nH]ccc23)c1` (single isomer, unassigned) [34, enantiomer 2], the IC50 in experiment [1] (Assay Conditions 1 mM ATP) was less than 50 nM. The “JAK2/JAK1 IC50 ratio” value on Jak2 (a.a. 828-1132) (Assay Conditions 1 mM ATP) was 13.8.
For the compound `N#CCC(C1CCN(c2scc(C#N)c2C#N)C1)n1ccc(-c2ncnc3[nH]ccc23)c1` (single isomer, unassigned) [81 enantiomer 1], the IC50 in experiment [1] (Assay Conditions 1 mM ATP) is less than 50 nM. On Jak2 (a.a. 828-1132) (Assay Conditions 1 mM ATP), the “JAK2/JAK1 IC50 ratio” value turned out to be 40.0.
The matching figures for `N#CCC(C1CCN(c2scc(C#N)c2C#N)C1)n1ccc(-c2ncnc3[nH]ccc23)c1` (single isomer, unassigned) [81 enantiomer 2]: less than 50 nM and 8.1.
On to `N#CCC(C1CCN(c2nccc(Cl)n2)C1)n1cc(-c2ncnc3[nH]ccc23)cn1` (single isomer, unassigned) [Example 4a, 3-[1-(4-chloropyrimidin-2-yl)pyrrolidin-3-yl]-3-[4-(7H-pyrrolo[2,3-d]pyrimidin-4-yl)-1H-pyrazol-1-yl]propanenitrile], for which the IC50 in experiment [1] (setting [2]) is less than 50 nM. Further, the “JAK2/JAK1 IC50 ratio” value at Jak2 (a.a. 828-1132) (setting [3]) was 8.8.
For `N#CCC(C1CCN(c2nccc(Cl)n2)C1)n1cc(-c2ncnc3[nH]ccc23)cn1` (single isomer, unassigned) [Example 4b, 3-[1-(4-chloropyrimidin-2-yl)pyrrolidin-3-yl]-3-[4-(7H-pyrrolo[2,3-d]pyrimidin-4-yl)-1H-pyrazol-1-yl]propanenitrile], in that order: less than 50 nM and 3.7.
For `N#CCC(C1CCN(c2nc3cc(Cl)ccc3o2)C1)n1cc(-c2ncnc3[nH]ccc23)cn1` (single isomer, unassigned) [Example 10, 3-[1-(5-chloro-1,3-benzoxazol-2-yl)pyrrolidin-3-yl]-3-[4-(7H-pyrrolo[2,3-d]pyrimidin-4-yl)-1H-pyrazol-1-yl]propanenitrile], in that order: less than 50 nM and 1.9.
`N#CCC(C1CCN(c2nc3cnccc3o2)C1)n1cc(-c2ncnc3[nH]ccc23)cn1` (single isomer, unassigned) [Example 11, 3-(1-[1,3]oxazolo[4,5-c]pyridin-2-ylpyrrolidin-3-yl)-3-[4-(7H-pyrrolo[2,3-d]pyrimidin-4-yl)-1H-pyrazol-1-yl]propanenitrile] had an IC50 in experiment [1] (setting [2]) of less than 50 nM. Moreover, the “JAK2/JAK1 IC50 ratio” value on Jak2 (a.a. 828-1132) (setting [3]) is 2.9.
